Results reported in patent EP0327492A1, “Herbicidally and plantgrowth regulatory active quinoline and pyrindine compounds” (CIBA-GEIGY AG, priority 1988, dated 1989).

Tests used:
Format in all cases: in vivo
Abutilon [1] = test: Pre-emergent herbicidal action (B.2); settings: 500 bis 2000 [g/ha], evaluated after 3 weeks
Procedure: (§1) Im Gewächshaus wird unmittelbar nach der Einsaat der Versuchspflanzen in Saatschalen die Erdoberfläche mit einer wässrigen Dispersion der Wirkstoffe, erhalten aus einem 25 %igen Emulsionskonzentrat behandelt. Es werden Konzentrationen von 2000-500 g Wirksubstanz/Hektar angewendet. Die Saatschalen werden im Gewächshaus bei 22-25° C und 50-70 % relativer Luftfeuchtigkeit gehalten und der Versuch nach 3 Wochen ausgewertet und die Resultate nach folgender Notenskala ausgewertet. • 1 Pflanze hat nicht gekeimt oder ist eingegangen • 2-3 sehr starke Schäden • 4 starke Schäden • 5 mittlere Schäden, die Pflanzen sind verkümmert • 6 Schäden, die Pflanze kann regenerieren • 7-8 leichte Schäden • 9 normales Wachstum, wie das unbehandelter Pflanzen
(§2) Boniturnoten von 1 bis 4 (insbesondere von 1 bis 3) weisen auf eine gute bis sehr gute Herbizidwirkung hin. Boniturnoten von 6 bis 9 (insbesondere 7 bis 9) weisen auf eine gute Toleranz (insbesondere bei Kulturpflanzen) hin.

Alopecurus myos. [2] = test: Pre-emergent herbicidal action (B.2); settings: 500 bis 2000 [g/ha], evaluated after 3 weeks
Procedure: as §1, §2

Amaranthus ret. [3] = test: Pre-emergent herbicidal action (B.2); settings: 500 bis 2000 [g/ha], evaluated after 3 weeks
Procedure: as §1, §2

Avena fatua [4] = test: Pre-emergent herbicidal action (B.2); settings: 500 bis 2000 [g/ha], evaluated after 3 weeks
Procedure: as §1, §2

Bromus tectorum [5] = test: Pre-emergent herbicidal action (B.2); settings: 500 bis 2000 [g/ha], evaluated after 3 weeks
Procedure: as §1, §2

Chenopodium Sp. [6] = test: Pre-emergent herbicidal action (B.2); settings: 500 bis 2000 [g/ha], evaluated after 3 weeks
Procedure: as §1, §2

Chrysanthe. leuc. [7] = test: Pre-emergent herbicidal action (B.2); settings: 500 bis 2000 [g/ha], evaluated after 3 weeks
Procedure: as §1, §2

Digitaria sang. [8] = test: Pre-emergent herbicidal action (B.2); settings: 500 bis 2000 [g/ha], evaluated after 3 weeks
Procedure: as §1, §2

Echinochloa crus galli [9] = test: Pre-emergent herbicidal action (B.2); settings: 500 bis 2000 [g/ha], evaluated after 3 weeks
Procedure: as §1, §2

Galium aparine [10] = test: Pre-emergent herbicidal action (B.2); settings: 500 bis 2000 [g/ha], evaluated after 3 weeks
Procedure: as §1, §2

Ipomoea = test: Pre-emergent herbicidal action (B.2); settings: 500 bis 2000 [g/ha], evaluated after 3 weeks
Procedure: as §1, §2

Lolium perenne [11] = test: Pre-emergent herbicidal action (B.2); settings: 500 bis 2000 [g/ha], evaluated after 3 weeks
Procedure: as §1, §2

Sinapis [12] = test: Pre-emergent herbicidal action (B.2); settings: 500 bis 2000 [g/ha], evaluated after 3 weeks
Procedure: as §1, §2

Solanum nigrum [13] = test: Pre-emergent herbicidal action (B.2); settings: 500 bis 2000 [g/ha], evaluated after 3 weeks
Procedure: as §1, §2

Sorghum halep. [14] = test: Pre-emergent herbicidal action (B.2); settings: 500 bis 2000 [g/ha], evaluated after 3 weeks
Procedure: as §1, §2

Stellaria [15] = test: Pre-emergent herbicidal action (B.2); settings: 500 bis 2000 [g/ha], evaluated after 3 weeks
Procedure: as §1, §2

Veronica Sp. [16] = test: Pre-emergent herbicidal action (B.2); settings: 500 bis 2000 [g/ha], evaluated after 3 weeks
Procedure: as §1, §2

Abutilon [17] = test: Post-emergent herbicidal action, contact herbicide (B.3); settings: 500 bis 2000 [g/ha], 15 days after treatment
Procedure: as §1, §2
(§3) Eine Anzahl Unkräuter, sowohl monokotyle wie dikotyle, werden nach dem Auflaufen (im 4- bis 6-Blattstadium) mit einer wässrigen Wirkstoffdispersion in einer Dosierung von 2000-500 g Wirksubstanz pro Hektar auf die Pflanzen gespritzt und diese bei 24°-26°C und 45-60 % relativer Luftfeuchtigkeit gehalten. 15 Tage nach der Behandlung wird der Versuch nach dem in Beispiel B.2. gegebenen Massstab bewertet.

Alopecurus myos. [18] = test: as above; settings: 500 bis 2000 [g/ha], 15 days after treatment
Procedure: as §1, §2, §3

Amaranthus ret. [19] = test: as above; settings: 500 bis 2000 [g/ha], 15 days after treatment
Procedure: as §1, §2, §3

Avena fatua [20] = test: as above; settings: 500 bis 2000 [g/ha], 15 days after treatment
Procedure: as §1, §2, §3

Bromus tectorum [21] = test: as above; settings: 500 bis 2000 [g/ha], 15 days after treatment
Procedure: as §1, §2, §3

Chenopodium Sp. [22] = test: as above; settings: 500 bis 2000 [g/ha], 15 days after treatment
Procedure: as §1, §2, §3

Chrysanthe. leuc. [23] = test: as above; settings: 500 bis 2000 [g/ha], 15 days after treatment
Procedure: as §1, §2, §3

Digitaria sang. [24] = test: as above; settings: 500 bis 2000 [g/ha], 15 days after treatment
Procedure: as §1, §2, §3

Echinochloa crus galli [25] = test: as above; settings: 500 bis 2000 [g/ha], 15 days after treatment
Procedure: as §1, §2, §3

Galium aparine [26] = test: as above; settings: 500 bis 2000 [g/ha], 15 days after treatment
Procedure: as §1, §2, §3

Lolium perenne [27] = test: as above; settings: 500 bis 2000 [g/ha], 15 days after treatment
Procedure: as §1, §2, §3

Sinapis [28] = test: as above; settings: 500 bis 2000 [g/ha], 15 days after treatment
Procedure: as §1, §2, §3

Solanum nigrum [29] = test: as above; settings: 500 bis 2000 [g/ha], 15 days after treatment
Procedure: as §1, §2, §3

Sorghum halep. [30] = test: as above; settings: 500 bis 2000 [g/ha], 15 days after treatment
Procedure: as §1, §2, §3

Stellaria [31] = test: as above; settings: 500 bis 2000 [g/ha], 15 days after treatment
Procedure: as §1, §2, §3

Veronica Sp. [32] = test: as above; settings: 500 bis 2000 [g/ha], 15 days after treatment
Procedure: as §1, §2, §3

Xanthium Sp. = test: as above; settings: 500 bis 2000 [g/ha], 15 days after treatment
Procedure: as §1, §2, §3

For `CC1CCc2nc3c(cc2C1)C(=O)N1C(=O)C(C)(C(C)C)N=C31` (stereo not shown) [Verbindung 3.01, 2,8-Dimethyl-2-isopropyl-7,8,9,10-tetrahydro-3H,5H-imidazo[1',2':1,2]pyrrolo[3,4-b]chinolin-3,5-dion], the Herbizidwirkung (Abutilon [1]) was “gute bis sehr gute Herbizidwirkung (Boniturnoten von 1 bis 4 (insbesondere von 1 bis 3) weisen auf eine gute bis sehr gute Herbizidwirkung hin)”, the Herbizidwirkung (Alopecurus myos. [2]) was “gute bis sehr gute Herbizidwirkung (Boniturnoten von 1 bis 4 (insbesondere von 1 bis 3) weisen auf eine gute bis sehr gute Herbizidwirkung hin)” and the Herbizidwirkung (Amaranthus ret. [3]) was “gute bis sehr gute Herbizidwirkung (Boniturnoten von 1 bis 4 (insbesondere von 1 bis 3) weisen auf eine gute bis sehr gute Herbizidwirkung hin)”. For the same compound, the Herbizidwirkung (Avena fatua [4]) was “gute bis sehr gute Herbizidwirkung (Boniturnoten von 1 bis 4 (insbesondere von 1 bis 3) weisen auf eine gute bis sehr gute Herbizidwirkung hin)”, the Herbizidwirkung (Bromus tectorum [5]) was “gute bis sehr gute Herbizidwirkung (Boniturnoten von 1 bis 4 (insbesondere von 1 bis 3) weisen auf eine gute bis sehr gute Herbizidwirkung hin)” and the Herbizidwirkung (Chenopodium Sp. [6]) was “gute bis sehr gute Herbizidwirkung (Boniturnoten von 1 bis 4 (insbesondere von 1 bis 3) weisen auf eine gute bis sehr gute Herbizidwirkung hin)”. The Herbizidwirkung (Chrysanthe. leuc. [7]) was “gute bis sehr gute Herbizidwirkung (Boniturnoten von 1 bis 4 (insbesondere von 1 bis 3) weisen auf eine gute bis sehr gute Herbizidwirkung hin)”, the Herbizidwirkung (Digitaria sang. [8]) was “gute bis sehr gute Herbizidwirkung (Boniturnoten von 1 bis 4 (insbesondere von 1 bis 3) weisen auf eine gute bis sehr gute Herbizidwirkung hin)” and the Herbizidwirkung (Echinochloa crus galli [9]) was “gute bis sehr gute Herbizidwirkung (Boniturnoten von 1 bis 4 (insbesondere von 1 bis 3) weisen auf eine gute bis sehr gute Herbizidwirkung hin)”. The Herbizidwirkung (Galium aparine [10]) was “gute bis sehr gute Herbizidwirkung (Boniturnoten von 1 bis 4 (insbesondere von 1 bis 3) weisen auf eine gute bis sehr gute Herbizidwirkung hin)”, the Herbizidwirkung (Ipomoea) was “gute bis sehr gute Herbizidwirkung (Boniturnoten von 1 bis 4 (insbesondere von 1 bis 3) weisen auf eine gute bis sehr gute Herbizidwirkung hin)” and the Herbizidwirkung (Lolium perenne [11]) was “gute bis sehr gute Herbizidwirkung (Boniturnoten von 1 bis 4 (insbesondere von 1 bis 3) weisen auf eine gute bis sehr gute Herbizidwirkung hin)”. The Herbizidwirkung (Sinapis [12]) was “gute bis sehr gute Herbizidwirkung (Boniturnoten von 1 bis 4 (insbesondere von 1 bis 3) weisen auf eine gute bis sehr gute Herbizidwirkung hin)”, the Herbizidwirkung (Solanum nigrum [13]) was “gute bis sehr gute Herbizidwirkung (Boniturnoten von 1 bis 4 (insbesondere von 1 bis 3) weisen auf eine gute bis sehr gute Herbizidwirkung hin)” and the Herbizidwirkung (Sorghum halep. [14]) was “gute bis sehr gute Herbizidwirkung (Boniturnoten von 1 bis 4 (insbesondere von 1 bis 3) weisen auf eine gute bis sehr gute Herbizidwirkung hin)”. For the same compound, the Herbizidwirkung (Stellaria [15]) was “gute bis sehr gute Herbizidwirkung (Boniturnoten von 1 bis 4 (insbesondere von 1 bis 3) weisen auf eine gute bis sehr gute Herbizidwirkung hin)”, the Herbizidwirkung (Veronica Sp. [16]) was “gute bis sehr gute Herbizidwirkung (Boniturnoten von 1 bis 4 (insbesondere von 1 bis 3) weisen auf eine gute bis sehr gute Herbizidwirkung hin)” and the Herbizidwirkung (Abutilon [17]) was “gute bis sehr gute Herbizidwirkung (Boniturnoten von 1 bis 4 (insbesondere von 1 bis 3) weisen auf eine gute bis sehr gute Herbizidwirkung hin)”. The Herbizidwirkung (Alopecurus myos. [18]) was “gute bis sehr gute Herbizidwirkung (Boniturnoten von 1 bis 4 (insbesondere von 1 bis 3) weisen auf eine gute bis sehr gute Herbizidwirkung hin)”, the Herbizidwirkung (Amaranthus ret. [19]) was “gute bis sehr gute Herbizidwirkung (Boniturnoten von 1 bis 4 (insbesondere von 1 bis 3) weisen auf eine gute bis sehr gute Herbizidwirkung hin)” and the Herbizidwirkung (Avena fatua [20]) was “gute bis sehr gute Herbizidwirkung (Boniturnoten von 1 bis 4 (insbesondere von 1 bis 3) weisen auf eine gute bis sehr gute Herbizidwirkung hin)”. For the same compound, the Herbizidwirkung (Bromus tectorum [21]) was “gute bis sehr gute Herbizidwirkung (Boniturnoten von 1 bis 4 (insbesondere von 1 bis 3) weisen auf eine gute bis sehr gute Herbizidwirkung hin)”, the Herbizidwirkung (Chenopodium Sp. [22]) was “gute bis sehr gute Herbizidwirkung (Boniturnoten von 1 bis 4 (insbesondere von 1 bis 3) weisen auf eine gute bis sehr gute Herbizidwirkung hin)” and the Herbizidwirkung (Chrysanthe. leuc. [23]) was “gute bis sehr gute Herbizidwirkung (Boniturnoten von 1 bis 4 (insbesondere von 1 bis 3) weisen auf eine gute bis sehr gute Herbizidwirkung hin)”. For the same compound, the Herbizidwirkung (Digitaria sang. [24]) was “gute bis sehr gute Herbizidwirkung (Boniturnoten von 1 bis 4 (insbesondere von 1 bis 3) weisen auf eine gute bis sehr gute Herbizidwirkung hin)”, the Herbizidwirkung (Echinochloa crus galli [25]) was “gute bis sehr gute Herbizidwirkung (Boniturnoten von 1 bis 4 (insbesondere von 1 bis 3) weisen auf eine gute bis sehr gute Herbizidwirkung hin)” and the Herbizidwirkung (Galium aparine [26]) was “gute bis sehr gute Herbizidwirkung (Boniturnoten von 1 bis 4 (insbesondere von 1 bis 3) weisen auf eine gute bis sehr gute Herbizidwirkung hin)”. For the same compound, the Herbizidwirkung (Lolium perenne [27]) was “gute bis sehr gute Herbizidwirkung (Boniturnoten von 1 bis 4 (insbesondere von 1 bis 3) weisen auf eine gute bis sehr gute Herbizidwirkung hin)”, the Herbizidwirkung (Sinapis [28]) was “gute bis sehr gute Herbizidwirkung (Boniturnoten von 1 bis 4 (insbesondere von 1 bis 3) weisen auf eine gute bis sehr gute Herbizidwirkung hin)” and the Herbizidwirkung (Solanum nigrum [29]) was “gute bis sehr gute Herbizidwirkung (Boniturnoten von 1 bis 4 (insbesondere von 1 bis 3) weisen auf eine gute bis sehr gute Herbizidwirkung hin)”. For the same compound, the Herbizidwirkung (Sorghum halep. [30]) was “gute bis sehr gute Herbizidwirkung (Boniturnoten von 1 bis 4 (insbesondere von 1 bis 3) weisen auf eine gute bis sehr gute Herbizidwirkung hin)”, the Herbizidwirkung (Stellaria [31]) was “gute bis sehr gute Herbizidwirkung (Boniturnoten von 1 bis 4 (insbesondere von 1 bis 3) weisen auf eine gute bis sehr gute Herbizidwirkung hin)” and the Herbizidwirkung (Veronica Sp. [32]) was “gute bis sehr gute Herbizidwirkung (Boniturnoten von 1 bis 4 (insbesondere von 1 bis 3) weisen auf eine gute bis sehr gute Herbizidwirkung hin)”. The Herbizidwirkung (Xanthium Sp.) was “gute bis sehr gute Herbizidwirkung (Boniturnoten von 1 bis 4 (insbesondere von 1 bis 3) weisen auf eine gute bis sehr gute Herbizidwirkung hin)”.
